Here are results for 22 molecules from ChEMBL document CHEMBL3085746, “Discovery of novel PTP1B inhibitors via pharmacophore-oriented scaffold hopping from Ertiprotafib” (Bioorg Med Chem Lett, 2013).

Assay [1] deals with T1, Tyrosine-protein phosphatase non-receptor type 1 (Homo sapiens) (UniProt P18031).
T1 sequence (whole entry): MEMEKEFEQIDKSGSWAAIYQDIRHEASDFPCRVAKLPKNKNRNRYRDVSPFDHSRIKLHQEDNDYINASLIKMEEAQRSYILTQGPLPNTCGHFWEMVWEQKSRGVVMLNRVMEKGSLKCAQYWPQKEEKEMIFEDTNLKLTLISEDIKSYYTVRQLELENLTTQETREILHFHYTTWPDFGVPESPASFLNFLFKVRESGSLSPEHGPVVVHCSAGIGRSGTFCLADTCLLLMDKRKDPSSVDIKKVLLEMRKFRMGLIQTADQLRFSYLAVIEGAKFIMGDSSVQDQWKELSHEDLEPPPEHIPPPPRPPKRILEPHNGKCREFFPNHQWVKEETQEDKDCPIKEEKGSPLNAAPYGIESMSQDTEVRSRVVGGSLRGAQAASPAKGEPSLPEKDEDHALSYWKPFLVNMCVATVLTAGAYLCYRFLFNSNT
Briefly: Inhibition of GST-tagged recombinant human PTP1B at 100 uM.

The target in assay [2] is T2, Tyrosine-protein phosphatase non-receptor type 1 (Homo sapiens, UniProt P18031).
T2 sequence (P18031 whole entry): T1 sequence (whole entry)
Briefly: Inhibition of GST-tagged recombinant human PTP1B.

A value given as a limit tells only on which side of the number the result lay.

Take `COc1ccc(N(Cc2ccc3c(c2)OCO3)C(=O)c2ccc(CN(CC(=O)O)Cc3ccccc3)cc2)cc1`: in assay [1], the inhibition (commonly the drop in the measured response relative to a control, in per cent) was below 40%.
For `O=C(O)CC(CC(=O)c1ccccc1)c1ccc(Cn2c3ccccc3c3ccccc32)cc1` (stereo not given), the 50% inhibitory concentration (IC50) (commonly the concentration needed to halve the response being measured) in assay [2] turned out to be 10 µM. In addition, in assay [1], the inhibition was found to be 98%.
`O=C(O)CC(CC(=O)c1ccccc1)c1ccc(OC(c2ccccc2)c2ccccc2)cc1` (stereo not given): the inhibition in assay [1] was found to be 61%.
Regarding `O=C(O)CN(C(=O)Cc1ccccc1)c1ccc(CN(Cc2ccc3c(c2)OCO3)c2ccc(F)cc2)cc1`, the concentration for half-maximal inhibition (IC50) in assay [2] came to 1.3 µM. The inhibition in assay [1] was 96.4%.
Turning to `O=C(O)CN(Cc1ccccc1)Cc1ccc(-n2c3ccccc3c3ccccc32)cc1`, in assay [1], the inhibition worked out at 67.3%.
Regarding `O=C(O)[C@@H](Cc1ccccc1)Oc1c(Br)cc(-c2c3ccccc3c(Br)c3oc4ccccc4c23)cc1Br`, the concentration for half-maximal inhibition (IC50) in assay [2] was found to be 0.87 µM. Moreover, the inhibition in assay [1] was 100%.
In the case of `O=C(N[C@H](Cc1ccccc1)C(=O)O)c1ccc(CN(Cc2ccccc2)Cc2ccccc2)cc1`, in assay [2], the half-inhibitory concentration (IC50) was determined as 23.9 µM. Further, the inhibition in assay [1] was found to be 95%.
On to `O=C(O)[C@@H](Cc1ccccc1)Oc1ccc(C(=O)N(Cc2ccc3c(c2)OCO3)c2ccc(F)cc2)cc1`, for which, in assay [1], the inhibition is below 40%.
The same measure, in the same setting: next, `COc1ccc(N(Cc2ccc(O[C@H](Cc3ccccc3)C(=O)O)cc2)C(=O)c2ccc3c(c2)OCO3)cc1`: below 40%.
For the molecule `O=C(O)CC(CC(=O)c1ccccc1)c1ccc(CN(Cc2ccc3c(c2)OCO3)c2ccc(F)cc2)cc1` (stereo not given), the inhibition in assay [1] was 59.1%.
On the same count and under the same terms, next, `O=C(N[C@H](Cc1ccccc1)C(=O)O)c1ccc(Cn2c3ccccc3c3ccccc32)cc1`: 51.8%; `O=C(O)CN(Cc1ccccc1)c1ccc(CN(Cc2ccc3c(c2)OCO3)c2ccc(F)cc2)cc1`: 44.3%.
In the case of `O=C(O)CC(CC(=O)c1ccccc1)c1ccc(-n2c3ccccc3c3ccccc32)cc1` (stereo not given), the IC50 in assay [2] worked out at 10.2 µM. In assay [1], the inhibition stood at 106%.
For the molecule `COc1ccc(N(Cc2ccc(O[C@H](Cc3ccccc3)C(=O)O)cc2)C(=O)c2ccc(C(=O)O)cc2)cc1`, the inhibition in assay [1] was below 40%.
Same read-out and setting: for `COc1ccc(N(Cc2ccc3c(c2)OCO3)C(=O)c2ccc(C(CC(=O)O)CC(=O)c3ccccc3)cc2)cc1` (stereo not given) the value was below 40%; for `O=C(N[C@H](Cc1ccccc1)C(=O)O)c1ccc(CN(c2ccccc2)c2ccccc2)cc1`, 83.8%.
For `COc1ccc(N(Cc2ccc(C(=O)N[C@H](Cc3ccccc3)C(=O)O)cc2)Cc2ccc3c(c2)OCO3)cc1`, the inhibition in assay [1] stood at 100%.
The same measure, in the same setting: for `O=C(N[C@H](Cc1ccccc1)C(=O)O)c1ccc(C(=O)N(Cc2ccccc2)Cc2ccccc2)cc1` the value was below 40%; for `O=C(N[C@H](Cc1ccccc1)C(=O)O)c1ccc(Cn2c(Cc3ccccc3)nc3ccccc32)cc1`, 53.4%.
For the molecule `O=C(N[C@H](Cc1ccccc1)C(=O)O)c1ccc(CN(Cc2ccccc2)c2ccccc2)cc1`, the IC50 in assay [2] turned out to be 3.9 µM. Also, the inhibition in assay [1] came to 113%.
The corresponding values for `O=C(O)[C@@H](Cc1ccccc1)Oc1ccc(-n2c3ccccc3c3ccccc32)cc1` are 40.3 µM and 98.4%.
Regarding `O=C(O)[C@@H](Cc1ccccc1)Oc1ccc(CN(Cc2ccc3c(c2)OCO3)c2ccc(F)cc2)cc1`, the IC50 in assay [2] was 10.4 µM. Also, the inhibition in assay [1] is 112%.
